Data published in PubChem BioAssay AID248 (DTP/NCI, 2004).
Values joined by “and” are separate entries in the source; they are usually repeats but may differ in a detail not shown here. Identical values can stand only once. Toxic doses and inconclusive results are not listed. No stated cut-off is given here; in the data, active means T/C of 150% or more; inactive means T/C below 125%.

System: L1210 leukemia ip in BDF1 mice, survival T/C
Experiment: NCI In Vivo Anticancer Drug Screen. Data for tumor model L1210 Leukemia (intraperitoneal) in B6D2F1 (BDF1) mice
Details: endpoint: mean survival time, higher = longer survival
How it was run: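 Antitumor effect is assessed in tumor-bearing animals. Survival in the compound arm is compared with a vehicle-dosed control arm and expressed as their quotient.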

[1] = dose: 100.0 mg/kg/injection, schedule: Q01DX001 (ip), vehicle: saline
[2] = dose: 200.0 mg/kg/injection, schedule: Q01DX001 (ip), vehicle: saline
[3] = dose: 400.0 mg/kg/injection, schedule: Q01DX001 (ip), vehicle: saline
[4] = dose: 50.0 mg/kg/injection, schedule: Q01DX009 (ip), vehicle: saline with Tween-80
[5] = dose: 100.0 mg/kg/injection, schedule: Q01DX009 (ip), vehicle: saline with Tween-80
[6] = dose: 100.0 mg/kg/injection, schedule: Q04DX003 (ip), vehicle: saline with Tween-80
[7] = dose: 200.0 mg/kg/injection, schedule: Q04DX003 (ip), vehicle: saline with Tween-80
[8] = dose: 400.0 mg/kg/injection, schedule: Q04DX003 (ip), vehicle: saline with Tween-80
[9] = dose: 100.0 mg/kg/injection, schedule: Q01DX009 (ip), vehicle: Klucel (hydroxypropylcellulose) (HPC)
[10] = dose: 100.0 mg/kg/injection, schedule: Q04DX003 (ip), vehicle: Klucel (hydroxypropylcellulose) (HPC)
[11] = dose: 200.0 mg/kg/injection, schedule: Q01DX009 (ip), vehicle: Klucel (hydroxypropylcellulose) (HPC)
[12] = dose: 200.0 mg/kg/injection, schedule: Q04DX003 (ip), vehicle: Klucel (hydroxypropylcellulose) (HPC)
[13] = dose: 400.0 mg/kg/injection, schedule: Q01DX009 (ip), vehicle: Klucel (hydroxypropylcellulose) (HPC)
[14] = dose: 400.0 mg/kg/injection, schedule: Q04DX003 (ip), vehicle: Klucel (hydroxypropylcellulose) (HPC)
[15] = dose: 25.0 mg/kg/injection, schedule: Q01DX009 (ip), vehicle: saline with Tween-80
[16] = dose: 100.0 mg/kg/injection, schedule: Q01DX001 (ip), vehicle: saline with Tween-80
[17] = dose: 100.0 mg/kg/injection, schedule: Q04DX002 (ip), vehicle: saline with Tween-80
[18] = dose: 200.0 mg/kg/injection, schedule: Q01DX001 (ip), vehicle: saline with Tween-80
[19] = dose: 200.0 mg/kg/injection, schedule: Q01DX009 (ip), vehicle: saline with Tween-80
[20] = dose: 200.0 mg/kg/injection, schedule: Q04DX002 (ip), vehicle: saline with Tween-80
[21] = dose: 400.0 mg/kg/injection, schedule: Q01DX001 (ip), vehicle: saline with Tween-80
[22] = dose: 400.0 mg/kg/injection, schedule: Q01DX009 (ip), vehicle: saline with Tween-80
[23] = dose: 400.0 mg/kg/injection, schedule: Q04DX002 (ip), vehicle: saline with Tween-80
[24] = dose: 25.0 mg/kg/injection, schedule: Q04DX003 (ip), vehicle: saline with Tween-80

Measured: T/C

C/C(=C\c1ccccc1)c1ccccc1
inactive: dose: 50.0 mg/kg/injection, schedule: Q01DX001 (ip), vehicle: saline 91 % of control | [1] 97 % of control | [2] 95 % of control | [3] 101 % of control

O=C(c1ccccc1)c1c2ccccc2cc2ccccc12
inactive: [4] 91 % of control | [5] 90 % of control | [6] 89 % of control | [7] 89 % of control | [8] 90 % of control

CCCCCCC(=O)CCCC(C)CCCC(C)C (configuration not stated)
inactive: [9] 91 % of control | [10] 93 % of control | [11] 97 % of control | [12] 95 % of control | [13] 98 % of control | [14] 88 % of control

O=c1ccnc(C(F)(F)F)[nH]1
inactive: dose: 44.0 mg/kg/injection, schedule: Q01DX Z (ip), vehicle: methylcellulose (MC) 87 % of control | dose: 66.0 mg/kg/injection, schedule: Q01DX Z (ip), vehicle: methylcellulose (MC) 96 % of control | dose: 100.0 mg/kg/injection, schedule: Q01DX Z (ip), vehicle: methylcellulose (MC) 101 % of control

CCC1C(=O)OC2OC(c3ccccc3)(c3ccccc3)NC21 (configuration not stated)
inactive: dose: 100.0 mg/kg/injection, schedule: Q01DX001 (ip), vehicle: carboxymethylcellulose (CMC) 88 % of control | dose: 200.0 mg/kg/injection, schedule: Q01DX001 (ip), vehicle: carboxymethylcellulose (CMC) 88 % of control | dose: 400.0 mg/kg/injection, schedule: Q01DX001 (ip), vehicle: carboxymethylcellulose (CMC) 90 % of control

C(=Nc1ccc(-c2ccccc2)cc1)c1ccccc1
inactive: [15] 105 % of control | [4] 97 % of control | [5] 92 % of control

O=c1[nH]c2ccccc2o1
inactive: dose: 75.0 mg/kg/injection, schedule: Q01DX001 (ip), vehicle: Klucel (hydroxypropylcellulose) (HPC) 101 % of control | dose: 150.0 mg/kg/injection, schedule: Q01DX001 (ip), vehicle: Klucel (hydroxypropylcellulose) (HPC) 100 % of control | dose: 200.0 mg/kg/injection, schedule: Q04DX002 (ip), vehicle: saline 92 % of control | dose: 300.0 mg/kg/injection, schedule: Q01DX001 (ip), vehicle: Klucel (hydroxypropylcellulose) (HPC) 103 % of control | dose: 400.0 mg/kg/injection, schedule: Q04DX002 (ip), vehicle: saline 114 % of control

O=C(NCCNC(=O)C(Cl)(Cl)Cl)C(Cl)(Cl)Cl
inactive: [9] 89 % of control | [11] 91 % of control | [13] 87 % of control

COc1ccc(Cl)cc1NC(=O)OCC(Cl)(Cl)Cl
inactive: [16] 95 % of control | [5] 100 % of control and 102 % of control | [17] 93 % of control and 91 % of control | [6] 103 % of control | [18] 94 % of control | [19] 96 % of control and 115 % of control | [20] 94 % of control and 101 % of control | [7] 94 % of control | [21] 94 % of control | [22] 100 % of control and 91 % of control | [23] 97 % of control and 108 % of control | [8] 97 % of control

COC(=O)C1C2CC3OC(=O)C1(C)C3C2 (configuration not stated)
inactive: [1] 103 % of control | [2] 98 % of control | [3] 97 % of control

CCCCCCCCCCCC(=O)NC(CCC(=O)O)C(=O)O (configuration not stated)
inactive: [1] 111 % of control | [2] 103 % of control | [3] 105 % of control

CN1CCN(CCNc2ccc(CO)c3sc4ccccc4c(=O)c23)CC1
inactive: dose: 31.25 mg/kg/injection, schedule: Q01DX009 (ip), vehicle: Klucel (hydroxypropylcellulose) (HPC) 100 % of control | dose: 62.5 mg/kg/injection, schedule: Q01DX009 (ip), vehicle: Klucel (hydroxypropylcellulose) (HPC) 97 % of control | dose: 125.0 mg/kg/injection, schedule: Q01DX009 (ip), vehicle: Klucel (hydroxypropylcellulose) (HPC) 105 % of control

COC(=O)CC(=O)C=P(c1ccccc1)(c1ccccc1)c1ccccc1
inactive: dose: 12.5 mg/kg/injection, schedule: Q01DX009 (ip), vehicle: saline with Tween-80 98 % of control | [15] 101 % of control | [4] 95 % of control | dose: 75.0 mg/kg/injection, schedule: Q01DX001 (ip), vehicle: saline 96 % of control | [5] 89 % of control | dose: 150.0 mg/kg/injection, schedule: Q01DX001 (ip), vehicle: saline 100 % of control | dose: 300.0 mg/kg/injection, schedule: Q01DX001 (ip), vehicle: saline 93 % of control

CN(C)CCCN=Cc1ccccc1O.CN(C)CCCN=Cc1ccccc1O.[Ni+2]
inactive: dose: 6.25 mg/kg/injection, schedule: Q04DX003 (ip), vehicle: saline with Tween-80 100 % of control | dose: 12.5 mg/kg/injection, schedule: Q04DX003 (ip), vehicle: saline with Tween-80 94 % of control | [24] 101 % of control

O=C(O)[C@H]1CC2CCC1C2 (some centres not stated)
inactive: [6] 98 % of control | [7] 102 % of control | [8] 93 % of control

CNc1ccc(C(=O)O)cc1I
inactive: [9] 100 % of control | [10] 94 % of control | [11] 94 % of control | [12] 103 % of control | [13] 94 % of control | [14] 96 % of control

COc1ccc(C(=O)NC[n+]2ccccc2)cc1
inactive: dose: 25.0 mg/kg/injection, schedule: Q01DX009 (ip), vehicle: saline 93 % of control | dose: 25.0 mg/kg/injection, schedule: Q04DX003 (ip), vehicle: saline 86 % of control | dose: 50.0 mg/kg/injection, schedule: Q01DX009 (ip), vehicle: saline 98 % of control | dose: 50.0 mg/kg/injection, schedule: Q04DX003 (ip), vehicle: saline 93 % of control | dose: 100.0 mg/kg/injection, schedule: Q04DX003 (ip), vehicle: saline 99 % of control

Cc1ccc(C(=O)Cl)cc1S(=O)(=O)F
inactive: [15] 95 % of control | [24] 96 % of control | [4] 104 % of control | dose: 50.0 mg/kg/injection, schedule: Q04DX003 (ip), vehicle: saline with Tween-80 100 % of control | [6] 96 % of control | [7] 94 % of control and 102 % of control

CC(=O)O[C@]1(C(C)=O)CC[C@H]2[C@@H]3CCC4=CC(=O)[C@H](C)C[C@]4(C)[C@@]3(F)[C@@H](O)C[C@@]21C
inactive: dose: 25.0 mg/kg/injection, schedule: Q01DX015 (sc), vehicle: steriod suspending solution 100 % of control | dose: 50.0 mg/kg/injection, schedule: Q01DX015 (sc), vehicle: steriod suspending solution 104 % of control | dose: 100.0 mg/kg/injection, schedule: Q01DX015 (sc), vehicle: steriod suspending solution 100 % of control | dose: 200.0 mg/kg/injection, schedule: Q01DX015 (sc), vehicle: steriod suspending solution 104 % of control and 115 % of control | dose: 400.0 mg/kg/injection, schedule: Q01DX015 (sc), vehicle: steriod suspending solution 109 % of control | dose: 800.0 mg/kg/injection, schedule: Q01DX015 (sc), vehicle: steriod suspending solution 110 % of control

CCOC(=O)c1ccc(NC(=O)c2ccc(Cl)c(Cl)c2)cc1
inactive: [16] 112 % of control | [5] 97 % of control | [17] 97 % of control and 91 % of control | [6] 104 % of control | [18] 115 % of control | [19] 93 % of control and 101 % of control | [20] 93 % of control and 87 % of control | [7] 108 % of control | [21] 93 % of control | [22] 103 % of control and 114 % of control | [23] 93 % of control and 92 % of control | [8] 97 % of control

CC1CCC2(OC1)OC1C(O)C3C4CCC5CC(OC6OC(CO)C(OC7OC(CO)C(O)C(OC8OCC(O)C(O)C8O)C7OC7OC(CO)C(O)C(OC8OC(CO)C(O)C(O)C8O)C7O)C(O)C6O)C(O)CC5(C)C4CCC3(C)C1C2C (configuration not stated)
inactive: dose: 25.0 mg/kg/injection, schedule: Q01DX001 (ip), vehicle: saline with Tween-80 93 % of control
